Assay results taken from US12391737B2, “Soluble NPY2 receptor agonists” (Boehringer Ingelheim International GmbH, priority 2020, dated 2025).
Blank lines part the entries; values can stand above or below the molecule they belong to.

Assays:
[1] = molecular target: T1, Human Neuropeptide Y2 Receptor (Homo sapiens, UniProt P49146); test: Radioligand binding competition assay (RLB); conditions: Table 3, 125I-PYY(1-36) competition; read-out: Ki
T1 construct: purchased CHEMICON HTS066M
T1 sequence (P49146 1-381): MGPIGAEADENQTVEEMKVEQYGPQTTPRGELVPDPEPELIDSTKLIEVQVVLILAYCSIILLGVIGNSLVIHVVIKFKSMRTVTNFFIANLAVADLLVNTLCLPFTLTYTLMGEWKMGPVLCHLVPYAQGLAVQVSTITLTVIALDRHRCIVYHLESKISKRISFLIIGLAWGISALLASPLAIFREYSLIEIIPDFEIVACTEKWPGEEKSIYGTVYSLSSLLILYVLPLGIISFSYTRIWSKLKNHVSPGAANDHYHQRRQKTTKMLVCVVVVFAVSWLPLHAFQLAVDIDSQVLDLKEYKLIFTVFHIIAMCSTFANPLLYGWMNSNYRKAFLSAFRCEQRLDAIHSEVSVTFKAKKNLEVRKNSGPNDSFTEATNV
Outline: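 Receptor membranes, 0.5 μg/well; buffer 50 mM HEPES/5 mM MgCl2/1 mM CaCl2/0.2% ovalbumin, pH 7.4; 2 h RT, shaking. GF/C filtration, cold HEPES/500 mM NaCl wash, scintillation count. IC50 by nonlinear regression.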

[2] = Solubility determination; conditions: for Sol6: pH 6; for Sol7: pH 7
Outline: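 Sample: TFA-salt peptide at 10 mg/ml target in 0.1 M Na diphosphate, pH 6.4 or 7.0, shaken 2 h RT, filtered, diluted to 1 mg/ml.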

Compound: CC[C@H](C)[C@H](NC(=O)[C@H](CCC(=O)O)NC(=O)[C@H](CCC(=O)O)NC(=O)[C@@H]1CCCN1C(=O)[C@H](CCCCNC(=O)CCCCCNC(=O)CC[C@H](NC(=O)CCCCCCCCCCCCCCCCC(=O)O)C(=O)O)NC(=O)[C@H](CCC(=O)O)NC(=O)[C@@H]1CCCN1C(=O)[C@H](C)NC(=O)CC(C)C)C(=O)N[C@@H](C)C(=O)N[C@H](C(=O)N1CCC[C@H]1C(=O)N[C@@H](CCC(=O)O)C(=O)N[C@@H](CCC(=O)O)C(=O)N[C@@H](CC(C)C)C(=O)N[C@@H](CCC(N)=O)C(=O)N[C@@H](CCCNC(=N)N)C(=O)N[C@@H](Cc1ccc(O)cc1)C(=O)N[C@@H](Cc1ccc(O)cc1)C(=O)N[C@H](C(=O)N[C@@H](CO)C(=O)N[C@@H](CC(C)C)C(=O)N[C@@H](CCCNC(=N)N)C(=O)N[C@@H](Cc1c[nH]cn1)C(=O)N[C@@H](Cc1ccc(O)cc1)C(=O)N[C@@H](Cc1ccc(O)cc1)C(=O)N[C@@H](CC(N)=O)C(=O)N[C@@H](Cc1c[nH]c2ccccc12)C(=O)N[C@@H](CC(C)C)C(=O)N[C@H](C(=O)N[C@@H](CCCNC(=N)N)C(=O)N[C@@H](CCC(N)=O)C(=O)N[C@@H](CCCNC(=N)N)C(=O)N[C@@H](Cc1ccc(O)cc1)C(N)=O)[C@@H](C)O)C(C)C)[C@@H](C)O [Compound 45, N{alpha-4}-(3-methylbutanoyl)-N{epsilon-7}-(6-[(4S)-4-carboxy-4-(17-carboxyheptadecanamido)butanamido]hexanoyl)-[4A,7K,9E,11I,13T,18Q,22V,28Y,30W,31L]-hPYY(4-36)]
Ki [1]: 6.17 nM | Sol6 [2]: >10.0 mg/mL | Sol7 [2]: >10.0 mg/mL

Compound: CC(C)CC(=O)N[C@@H](C)C(=O)N1CCC[C@H]1C(=O)N[C@@H](CCC(=O)O)C(=O)N[C@@H](CCCCNC(=O)CCCCCNC(=O)CC[C@H](NC(=O)CCCCCCCCCCCCCCCCC(=O)O)C(=O)O)C(=O)N1CCC[C@H]1C(=O)N[C@@H](CCC(=O)O)C(=O)N[C@@H](CCC(=O)O)C(=O)N[C@@H](CC(=O)O)C(=O)N[C@@H](C)C(=O)N[C@H](C(=O)N1CCC[C@H]1C(=O)N[C@@H](CCC(=O)O)C(=O)N[C@@H](CCC(=O)O)C(=O)N[C@@H](CC(C)C)C(=O)N[C@@H](CCC(N)=O)C(=O)N[C@@H](CCCNC(=N)N)C(=O)N[C@@H](Cc1ccc(O)cc1)C(=O)N[C@@H](Cc1ccc(O)cc1)C(=O)N[C@H](C(=O)N[C@@H](CC(C)C)C(=O)N[C@@H](CC(C)C)C(=O)N[C@@H](CCCNC(=N)N)C(=O)N[C@@H](Cc1c[nH]cn1)C(=O)N[C@@H](Cc1ccc(O)cc1)C(=O)N[C@@H](Cc1ccc(O)cc1)C(=O)N[C@@H](CC(N)=O)C(=O)N[C@@H](Cc1c[nH]c2ccccc12)C(=O)N[C@@H](CC(C)C)C(=O)N[C@H](C(=O)N[C@@H](CCCNC(=N)N)C(=O)N[C@@H](CCC(N)=O)C(=O)N[C@@H](CCCNC(=N)N)C(=O)N[C@@H](Cc1ccc(O)cc1)C(N)=O)[C@@H](C)O)C(C)C)[C@@H](C)O [Compound 49, N{alpha-4}-(3-methylbutanoyl)-N{epsilon-7}-(6-[(4S)-4-carboxy-4-(17-carboxyheptadecanamido)butanamido]hexanoyl)-[4A,7K,9E,13T,18Q,22V,23L,28Y,30W,31L]-hPYY(4-36)]
Ki [1]: 11.6 nM | Sol6 [2]: >10.0 mg/mL | Sol7 [2]: >10.0 mg/mL

Compound: CC(C)CC(=O)N[C@@H](C)C(=O)N1CCC[C@H]1C(=O)N[C@@H](CCC(=O)O)C(=O)N[C@@H](CCCCNC(=O)CCCCCNC(=O)CC[C@H](NC(=O)CCCCCCCCCCCCCCCCC(=O)O)C(=O)O)C(=O)N1CCC[C@H]1C(=O)N[C@@H](CCC(=O)O)C(=O)N[C@@H](CCC(=O)O)C(=O)N[C@@H](CC(=O)O)C(=O)N[C@@H](C)C(=O)N[C@H](C(=O)N1CCC[C@H]1C(=O)N[C@@H](CCC(=O)O)C(=O)N[C@@H](CCC(=O)O)C(=O)N[C@@H](C)C(=O)N[C@@H](CCC(N)=O)C(=O)N[C@@H](CCCNC(=N)N)C(=O)N[C@@H](Cc1ccc(O)cc1)C(=O)N[C@@H](Cc1ccc(O)cc1)C(=O)N[C@H](C(=O)N[C@@H](CO)C(=O)N[C@@H](CC(C)C)C(=O)N[C@@H](CCCNC(=N)N)C(=O)N[C@@H](Cc1c[nH]cn1)C(=O)N[C@@H](Cc1ccc(O)cc1)C(=O)N[C@@H](Cc1ccc(O)cc1)C(=O)N[C@@H](CC(N)=O)C(=O)N[C@@H](Cc1c[nH]c2ccccc12)C(=O)N[C@@H](CC(C)C)C(=O)N[C@H](C(=O)N[C@@H](CCCNC(=N)N)C(=O)N[C@@H](CCC(N)=O)C(=O)N[C@@H](CCCNC(=N)N)C(=O)N[C@@H](Cc1ccc(O)cc1)C(N)=O)[C@@H](C)O)C(C)C)[C@@H](C)O [Compound 54, N{alpha-4}-(3-methylbutanoyl)-N{epsilon-7}-(6-[(4S)-4-carboxy-4-(17-carboxyheptadecanamido)butanamido]hexanoyl)-[4A,7K,9E,13T,17A,18Q,22V,28Y,30W,31L]-hPYY(4-36)]
Ki [1]: 8.97 nM | Sol6 [2]: 10.0 mg/mL | Sol7 [2]: 10.0 mg/mL

The next molecules have a lower Ki [1] than those just listed; values first:

Ki [1]: 5.86 nM | Sol6 [2]: 9.7 mg/mL | Sol7 [2]: 10.0 mg/mL
Compound: CC(C)CC(=O)N[C@@H](C)C(=O)N1CCC[C@H]1C(=O)N[C@@H](CCC(=O)O)C(=O)N[C@@H](CCCCNC(=O)CCCCCNC(=O)CC[C@H](NC(=O)CCCCCCCCCCCCCCCCC(=O)O)C(=O)O)C(=O)N1CCC[C@H]1C(=O)N[C@@H](CCC(=O)O)C(=O)N[C@@H](CCC(=O)O)C(=O)N[C@@H](CC(=O)O)C(=O)N[C@@H](C)C(=O)N[C@H](C(=O)N1CCC[C@H]1C(=O)N[C@@H](CCC(=O)O)C(=O)N[C@@H](CCC(=O)O)C(=O)N[C@@H](CC(C)C)C(=O)N[C@@H](CCC(N)=O)C(=O)N[C@@H](CCCNC(=N)N)C(=O)N[C@@H](Cc1ccc(O)cc1)C(=O)N[C@@H](Cc1ccc(O)cc1)C(=O)N[C@H](C(=O)NCC(=O)N[C@@H](CC(C)C)C(=O)N[C@@H](CCCNC(=N)N)C(=O)N[C@@H](Cc1c[nH]cn1)C(=O)N[C@@H](Cc1ccc(O)cc1)C(=O)N[C@@H](Cc1ccc(O)cc1)C(=O)N[C@@H](CC(N)=O)C(=O)N[C@@H](Cc1c[nH]c2ccccc12)C(=O)N[C@@H](CC(C)C)C(=O)N[C@H](C(=O)N[C@@H](CCCNC(=N)N)C(=O)N[C@@H](CCC(N)=O)C(=O)N[C@@H](CCCNC(=N)N)C(=O)N[C@@H](Cc1ccc(O)cc1)C(N)=O)[C@@H](C)O)C(C)C)[C@@H](C)O [Compound 44, N{alpha-4}-(3-methylbutanoyl)-N{epsilon-7}-(6-[(4S)-4-carboxy-4-(17-carboxyheptadecanamido)butanamido]hexanoyl)[4A,7K,9E,13T,18Q,22V,23G,28Y,30W,31L]-hPYY(4-36)]

Ki [1]: 1.54 nM | Sol6 [2]: 0.0 mg/mL | Sol7 [2]: 0.3 mg/mL
Compound: CC[C@H](C)[C@H](NC(=O)[C@H](Cc1ccc(O)cc1)NC(=O)[C@H](Cc1ccc(O)cc1)NC(=O)[C@H](CCCNC(=N)N)NC(=O)[C@H](CCC(N)=O)NC(=O)[C@H](CC(C)C)NC(=O)[C@H](CCC(=O)O)NC(=O)[C@H](CCC(=O)O)NC(=O)[C@@H]1CCCN1C(=O)[C@@H](NC(=O)[C@H](C)NC(=O)[C@H](C)NC(=O)[C@H](CCC(=O)O)NC(=O)[C@H](CCC(=O)O)NC(=O)[C@@H]1CCCN1C(=O)[C@H](CCCCNC(=O)CCCCCNC(=O)CC[C@H](NC(=O)CCCCCCCCCCCCCCCCC(=O)O)C(=O)O)NC(=O)[C@H](C)NC(=O)[C@@H]1CCCN1C(=O)[C@H](C)NC(=O)CC(C)C)[C@@H](C)O)C(=O)N[C@@H](CO)C(=O)N[C@@H](CC(C)C)C(=O)N[C@@H](CCCNC(=N)N)C(=O)N[C@@H](Cc1c[nH]cn1)C(=O)N[C@@H](Cc1ccc(O)cc1)C(=O)N[C@@H](Cc1ccc(O)cc1)C(=O)N[C@@H](CC(N)=O)C(=O)N[C@@H](Cc1c[nH]c2ccccc12)C(=O)N[C@@H](CC(C)C)C(=O)N[C@H](C(=O)N[C@@H](CCCNC(=N)N)C(=O)N[C@@H](CCC(N)=O)C(=O)N[C@@H](CCCNC(=N)N)C(=O)N[C@@H](Cc1ccc(O)cc1)C(N)=O)[C@@H](C)O [Compound 48, N{alpha-4}-(3-methylbutanoyl)-N{epsilon-7}-(6-[(4S)-4-carboxy-4-(17-carboxyheptadecanamido)butanamido]hexanoyl)-[4A,6A,7K,9E,11A,13T,18Q,22I,28Y,30W,31L]-hPYY(4-36)]

Ki [1]: 2.59 nM | Sol6 [2]: 9.6 mg/mL | Sol7 [2]: 9.7 mg/mL
Compound: CC(C)CC(=O)N[C@@H](C)C(=O)N1CCC[C@H]1C(=O)N[C@@H](CCC(=O)O)C(=O)N[C@@H](CCCCNC(=O)CCCCCNC(=O)CC[C@H](NC(=O)CCCCCCCCCCCCCCCCC(=O)O)C(=O)O)C(=O)N1CCC[C@H]1C(=O)N[C@@H](CCC(=O)O)C(=O)N[C@@H](CCC(=O)O)C(=O)N[C@@H](CC(=O)O)C(=O)N[C@@H](C)C(=O)N[C@H](C(=O)N1CCC[C@H]1C(=O)N[C@@H](CCC(=O)O)C(=O)N[C@@H](CCC(=O)O)C(=O)N[C@@H](CC(C)C)C(=O)N[C@@H](CCC(N)=O)C(=O)N[C@@H](CCCNC(=N)N)C(=O)N[C@@H](Cc1ccc(O)cc1)C(=O)N[C@@H](Cc1ccc(O)cc1)C(=O)N[C@H](C(=O)N[C@@H](CCC(N)=O)C(=O)N[C@@H](CC(C)C)C(=O)N[C@@H](CCCNC(=N)N)C(=O)N[C@@H](Cc1c[nH]cn1)C(=O)N[C@@H](Cc1ccc(O)cc1)C(=O)N[C@@H](Cc1ccc(O)cc1)C(=O)N[C@@H](CC(N)=O)C(=O)N[C@@H](Cc1c[nH]c2ccccc12)C(=O)N[C@@H](CC(C)C)C(=O)N[C@H](C(=O)N[C@@H](CCCNC(=N)N)C(=O)N[C@@H](CCC(N)=O)C(=O)N[C@@H](CCCNC(=N)N)C(=O)N[C@@H](Cc1ccc(O)cc1)C(N)=O)[C@@H](C)O)C(C)C)[C@@H](C)O [Compound 51, N{alpha-4}-(3-methylbutanoyl)-N{epsilon-7}-(6-[(4S)-4-carboxy-4-(17-carboxyheptadecanamido)butanamido]hexanoyl)-[4A,7K,9E,13T,18Q,22V,23Q,28Y,30W,31L]-hPYY(4-36)]
